# Results: patent US20090136517A1, “COMBINED TREATMENT WITH AN EGFR KINASE INHIBITOR AND AN INHIBITOR OF C-KIT” (priority 2007, published 2009)
# What was measured:
# [1] = system: MO7e human leukemia cells; details: cited from earlier work
# GEO tumor xenografts = assay: Treatment beyond progression, GEO model; assay type: in vivo, female nu/nu CD-1 mice; details: GEO xenografts progressing after 15 days of erlotinib; from time of re-sort; n=8 per group
# Source text: (§1) To run the preclinical treatment beyond progression study GEO cells were harvested from cell culture flasks during exponential cell growth, washed twice with sterile PBS, counted and resuspended in PBS to a suitable concentration before s.c. implantation on the right flank of female nu/nu CD-1 mice. Tumors were established to 200±50 mm^3 in size before randomization into vehicle control or erlotinib treatment groups. […] Each animal was maintained on its designated dosing regimen until its tumor volume from the time of re-sort had doubled.
# [2] = system: NCI-H292 tumor xenografts; assay: Treatment beyond progression model, NCI-H292 tumor xenografts; assay type: in vivo, female nu/nu CD-1 mice; details: H292 xenografts progressing after 32 days of erlotinib; from time of re-sort; n=8 per group
# Source text: Many patients with NSCLC who initially respond to erlotinib therapy develop progressive disease within a year of treatment. […] The mechanism for this phenomenon is not currently known. To evaluate this a preclinical model of progressive disease was utilized. This model utilizes the NCI-H292 tumor xenografts which initially respond very well to erlotinib treatment.
# as §1, with “studies NCI-H292” for “study GEO”
# [3] = system: H2122 NSCLC tumor xenografts; assay: Growth of H2122 NSCLC tumor xenografts in mice; assay type: in vivo, female nu/nu CD-1 mice; details: H2122 xenograft, 14th dosing day, single agent 100 mg/kg oral
# Description: (refrigeration) until dosing. […] Resulting drug was kept at 5° C. (refrigeration) until dosing.
SMILES,GM-CSF stimulated growth of MO7e cells ([1]; GM-CSF stimulated),apoptosis of MO7e cells ([1]; Kit ligand-stimulated conditions),Kit ligand-stimulated growth of MO7e cells ([1]; Kit ligand-stimulated),time to tumor doubling (GEO tumor xenografts) [days],time to tumor doubling [2] [days],tumor volume as percent of the initial tumor volume [3]
Cc1ccc(NC(=O)c2ccc(CN3CCN(C)CC3)cc2)cc1Nc1nccc(-c2cccnc2)n1 [Gleevec],not affected,induces apoptosis,inhibited,,,
"O=C(Nc1ccc(OC(F)(F)F)cc1)c1sccc1NCc1ccnc2ccccc12 [OSI-930, 3-[(Quinolin-4-ylmethyl)amino]-N-[4-(trifluoromethoxy)phenyl]thiophene-2-carboxamide]",,,,23.5,30,~120%
"C#Cc1cccc(Nc2ncnc3cc(OCCOC)c(OCCOC)cc23)c1 [erlotinib, [6,7-bis(2-methoxyethoxy)-4-quinazolin-4-yl]-(3-ethynylphenyl) amine]",,,,16.7,19.6,approximately 250%
